Measurements from article PMC12408683 (Archives of Toxicology, 2025).
Like-named read-outs stand apart in the source and are kept apart here.

Key:
HepG2 cells = conditions: for MN formation, increase (flow cytometry): 24 h + 72 h recovery
Description: DMSO served as solvent control, while MMC was used as a positive control. […] Following the recovery time, the cells were detached, harvested by centrifugation (300 g, 5 min), and washed with PBS. […] The fluorescent dye was then activated by photolysis (60 W lightbulb, 30 cm spacing) for 20 min before addition of 9 mL PBS to remove unbound dye. […] 1.5 × 10^4 cells were analysed using the BD FACSDiva software (BD Biosciences, Heidelberg, Germany).
As benchmark response (BMR) for all concentration–response curves (adducts, micronuclei), a 2.0-fold increase vs. solvent control was used (BMC100, critical effect size = 1).

parental HepG2 cells = tested on: parental HepG2 cells; design: method as in Yang et al. 2020; conditions: ref Yang et al. 2020; cited from earlier work
HepG2-CYP1A2 cells = conditions: ES 24 h + 72 h recovery; not statistically significant; concentration not given
Description: Following the recovery time, the cells were detached, harvested by centrifugation (300 g, 5 min), and washed with PBS. […] The fluorescent dye was then activated by photolysis (60 W lightbulb, 30 cm spacing) for 20 min before addition of 9 mL PBS to remove unbound dye. […] 1.5 × 10^4 cells were analysed using the BD FACSDiva software (BD Biosciences, Heidelberg, Germany). A schematic overview of the gating strategy is provided in the supporting information, Fig. 3.

[1] = endpoint MN (FCM), BMR 2.0-fold increase, 90% CI

Structure (SMILES)	MN formation, increase (flow cytometry) (HepG2 cells; 25 µM 1′OH-ES)	MN formation, increase (flow cytometry) (HepG2 cells; 50 µM 1′OH-ES)	concentrations at which clastogenicity was observed (HepG2 cells; CBMN and MN flow assay)	BMC100 (HepG2 cells; endpoint MN (FCM), BMR 2.0-fold increase)	BMCL (HepG2 cells; [1])	BMCU (HepG2 cells; [1])	DNA adducts (parental HepG2 cells)	MN formation, increase vs. solvent control (flow cytometry) (HepG2-CYP1A2 cells)
C=CC(O)c1ccc(OC)cc1 (centres unmarked) [1′OH-ES, 1′-hydroxyestragole]	twofold	4.6 fold	≥ 25 µM	29.8 µM	21.1 µM	37.6 µM	–	–
C=CCc1ccc(OC)cc1 [ES, estragole]	–	–	–	–	–	–	failed to cause DNA adducts	1.6 fold
